Assays:
SW48 cells = assay: Proliferation assay SW48 (CellTiterGlo, 96 hours); format: cell-based; settings: Homo sapiens
Description: (§1) The colon carcinoma cell lines SW48 (RRID: CVCL_1724), HCT 116 (RRID: CVCL_0291) and SNU-407 (RRID: CVCL_5058) were obtained from ATCC. The WRN-knockdown insensitive colon carcinoma cell line DLD-1 (RRID: CVCL_0248) was obtained from the Korean Cell Line Bank (KCLB), and used to generate a derivative in which the endogenous WRN gene copies were knocked out by CRISPR-mediated editing using standard CRISPR methods. The resulting cell line, DLD1-WRN-KO, was used to assess potential off-target compound effects.
(§2) SW48, SNU-407 and DLD1-WRN-KO cells were cultured in growth medium composed of RPMI-1640 (Amimed Cat #1-41F22-1), 2 mM L-Glutamine (Amimed Cat #5-10K50), 10 mM HEPES (Gibco Cat #15630-056), 1 mM sodium pyruvate (Amimed Cat #5-60F00-H), 1× Penicillin-Streptomycin (Amimed Cat #4-01F00-H) and 10% fetal calf serum (Amimed Cat #2-01F30-G, Lot #LB11566P). HCT 116 cells were cultured in growth medium composed of McCoys 5A (Amimed catalog #1-18F01-1), 2 mM L-Glutamine (Amimed Cat #5-10K50), 1× Penicillin-Streptomycin (Amimed Cat #4-01F00-H) and 10% fetal calf serum (Amimed Cat #2-01F30-G, Lot #LB11566P). All cells were maintained at 37° C. in a humidified 5% CO2 incubator.
(§3) Following filtration through a Steriflip-NY 20 μm filter (Millipore Cat #SCNY00020), trypsinized cells were seeded in 100 microliters growth medium at 2′000 (SW48) or 1′500 (SNU-407, DLD1-WRN-KO, HCT 116) cells/well into white, clear-bottom 96-well plates (Costar Cat #3903). Three replicate plates were prepared for each compound treatment condition. In addition, one plate (termed “day 0”) was prepared to quantify the number of viable cells at the time of compound addition. Following overnight incubation at 37° C. in a humidified 5% CO2 atmosphere, eight 3-fold serial dilutions of a given compound stock (obtained at a concentration of 10 mM in DMSO and stored at 4° C.) were dispensed directly into each of the triplicate assay plates using a HP 300D non-contact Digital Dispenser (TECAN). The final concentration of DMSO was normalized to 0.1% in all wells. 96 hours after compound addition, cellular ATP levels as a surrogate for cell viability was assessed following addition of 50 microliters CellTiterGlo (Promega Cat #G7573) reagent and luminescence quantification on a MPLEX multi-mode plate-reader (TECAN) following a 10 minute incubation at room temperature. The number of viable cells in the “day 0” plate were quantified identically on the day of compound addition.
(§4) For data analysis, the assay background signal that was determined in wells containing medium, but no cells, was subtracted from all other data points prior to further calculations. The extent of growth inhibition and potential cell kill was assessed by comparing the ATP levels (measured using CellTiterGlo, Promega) in compound-treated cells with those present at the time of compound addition. To this end, the following conditional concept was programmatically applied in HELIOS, an in-house software applying a multi-step decision tree to arrive at optimal concentration response curve fits (Gubler et al, SLAS DOI: 10.1177/2472555217752140) to calculate % growth (% G) for each compound-treated well: % G=(T−V0)/V0))*100 when T<V0, and % G=(T−V0)/(V−V0)))*100 when T>V0, where V0 is the viability level at time of compound addition, while V and T represent vehicle-control and compound-treated viability levels, respectively, at the end of the compound incubation. 100%, 0% and −100% signify absence of growth inhibition, growth stasis, and complete cell kill, respectively. Compound concentrations leading to half-maximal growth inhibition (G150) and residual cell viability at the highest tested compound concentration (Data (cmax), expressed in percent) were routinely calculated. Data analysis can also be carried out using commercially available software designed to derive IC50 values using 4-parameter fits (e.g. GraphPad Prism, XL fit). […]

DLD1-WRN-KO cells = assay: Proliferation assay DLD1-WRN-KO (CellTiterGlo, 96 hours), off-target effects; format: cell-based; settings: Homo sapiens
Description: as §1, §2, §3, §4

[1] = molecular target: WRN helicase (core helicase motif aa N517-P1238) (Homo sapiens (Human), UniProt Q14191); assay: WRN ATPase assay (ADP-Glo), DNA dependent ATP hydrolysis; format: biochemical; settings: 3 hours pre-incubation, 300 micromolar ATP, FLAP26 ssDNA; geometric means of at least 2 determinations
Description: An ATPase assay was set up to measure the DNA dependent ATP hydrolysis activity of WRN helicase. This assay was used also to assess the inhibition properties of compounds of the invention on DNA dependent WRN ATPase activity.
The core helicase motif of the WRN protein (aa N517-P1238) was produced for this assay (protein production as described above). A 45 oligonucleotide sequence called “FLAP26” as described by Brosh et al., 2009, DOI: 10.1074/jbc.M111446200 ([…]; SEQ ID NO: 2) was purchased from IDT (Integrated DNA Technologies, Leuven, Belgium) and used as single strand DNA substrate. The ADP-Glo assay kit (Promega, Madison, WI) allowing the quantification of ADP produced in ATP hydrolysis reactions was used for setting up this assay. Time course experiments were first performed in order to determine the best enzymatic assay conditions (including buffer conditions, reaction time and concentrations of protein, ATP and DNA substrates). A typical reaction consists of 10 nM WRN protein, 0.2 nM FLAP26, and 300 micromolar ATP in the following assay buffer: 30 mM Tris pH7.5, 2 mM MgCl2, 0.02% BSA, 50 mM NaCl, 0.1% pluronic F127 prepared in DNAse free water.
To evaluate the inhibition properties of compounds of the invention, serial dilutions were prepared in DMSO (10 half log dilutions from a 10 mM DMSO solution). 50 nanoliters of each concentration was pre-incubated for 3 hours in a 384 small volume assay plate (Greiner #784075) with 2.5 microliters of a 20 nM WRN helicase protein in assay buffer with 600 micromolar ATP. Control wells were included with a “high control” (no inhibition), containing DMSO with no test compound, and “low controls” (maximal inhibition), containing buffer without protein. The reaction was started by addition of 2.5 microliters of FLAP26 at 0.4 nM and incubated for 30 minutes at room temperature. The reaction was stopped with the addition of 5 microliters of the first ADP-Glo reagent and incubated for one hour to remove the excess amount of ATP. Afterwards, 10 microliters of ATP detection reagent was added and incubated for an additional hour before reading. Luminescence output was recorded using Tecan 1000 reader, with 5 minutes delay before reading. Each concentration of compound was tested in duplicates in the assay plate.
Data analysis was carried out using an in-house developed software (Novartis Helios software application, Novartis Institutes for BioMedical Research, unpublished) using the methods described by Formenko et al., 2006, DOI: 10.1016/j.cmpb.2006.01.008. Following normalization of activity values for the wells to % inhibition (% inhibition=[(high control-sample)/(high control-low control)]×100), IC50 fitting was carried out from the duplicate determinations present on each plate according to [4]. Data analysis can also be carried out using commercially available software designed to derive IC50 values using 4-parameter fits (e.g. GraphPad Prism, XL fit). The reported IC50 values are the geometrical means of at least 2 independent replicates.

Sequence of WRN helicase (core helicase motif aa N517-P1238) (Q14191 517-1238): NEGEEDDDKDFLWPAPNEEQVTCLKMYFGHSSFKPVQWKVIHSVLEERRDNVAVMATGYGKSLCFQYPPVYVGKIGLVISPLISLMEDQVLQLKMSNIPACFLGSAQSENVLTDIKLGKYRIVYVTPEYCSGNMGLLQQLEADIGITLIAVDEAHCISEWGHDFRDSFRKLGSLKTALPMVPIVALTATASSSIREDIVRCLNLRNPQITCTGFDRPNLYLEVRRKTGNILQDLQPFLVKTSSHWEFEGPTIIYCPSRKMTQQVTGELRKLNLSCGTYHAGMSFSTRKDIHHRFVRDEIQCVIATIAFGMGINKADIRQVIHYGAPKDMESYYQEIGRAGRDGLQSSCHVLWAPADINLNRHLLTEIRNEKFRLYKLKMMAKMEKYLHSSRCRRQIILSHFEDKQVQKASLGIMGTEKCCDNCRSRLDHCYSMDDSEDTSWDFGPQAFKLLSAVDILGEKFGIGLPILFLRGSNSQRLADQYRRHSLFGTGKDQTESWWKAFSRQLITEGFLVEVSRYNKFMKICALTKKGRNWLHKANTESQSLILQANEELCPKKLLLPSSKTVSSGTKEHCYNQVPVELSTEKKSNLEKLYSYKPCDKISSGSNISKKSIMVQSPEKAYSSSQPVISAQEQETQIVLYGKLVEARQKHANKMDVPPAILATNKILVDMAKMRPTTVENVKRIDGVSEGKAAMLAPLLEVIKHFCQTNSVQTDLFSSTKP

| GI50 (SW48 cells) | GI50 (DLD1-WRN-KO cells) | IC50 [1] | Structure (SMILES) |
| --- | --- | --- | --- |
| 0.2 µM | > 10 µM | 0.09 µM | Cc1nccc(C(=O)N2CCN(c3c4n(c5nc(C6=CCOCC6)nn5c3=O)[C@@H](C(=O)Nc3ccc(C(F)(F)F)cc3Cl)C[C@H]4C)CC2)c1O [Example 10, (7R,9R)—N-(2-chloro-4-(trifluoromethyl)phenyl)-2-(3,6-dihydro-2H-pyran-4-yl)-6-(4-(3-hydroxy-2-methylisonicotinoyl)piperazin-1-yl)-7-methyl-5-oxo-5,7,8,9-tetrahydropyrrolo[1,2-c][1,2,4]triazolo[1,5-a]pyrimidine-9-carboxamide] |
| > 10 µM | > 10 µM | > 10 µM | Cc1cc(C(F)(F)F)ccc1NC(=O)[C@@H]1CCc2c(N3CCN(C(=O)c4ncccc4O)CC3)c(=O)n3nc(C4=CCOCC4)nc3n21 [Example 20B, (S)-2-(3,6-dihydro-2H-pyran-4-yl)-6-(4-(3-hydroxypicolinoyl)piperazin-1-yl)-N-(2-methyl-4-(trifluoromethyl)phenyl)-5-oxo-5,7,8,9-tetrahydropyrrolo[1,2-c][1,2,4]triazolo[1,5-a]pyrimidine-9-carboxamide] |
| 9 µM | > 10 µM | 7 µM | C[C@H]1C[C@@H](C(=O)Nc2ccc(C(F)(F)F)cc2Cl)n2c1c(N1CCN(C(=O)c3nccc(Cl)c3O)CC1)c(=O)n1nc(N3CCOCC3)nc21 [Example 1B, (7S,9S)-6-(4-(4-chloro-3-hydroxypicolinoyl)piperazin-1-yl)-N-(2-chloro-4-(trifluoromethyl)phenyl)-7-methyl-2-morpholino-5-oxo-5,7,8,9-tetrahydropyrrolo[1,2-c][1,2,4]triazolo[1,5-a]pyrimidine-9-carboxamide] |
| 0.2 µM | > 10 µM | 0.05 µM | O=C(Nc1ccc(C(F)(F)F)cc1)[C@H]1CCc2c(N3CCN(C(=O)c4ncccc4O)CC3)c(=O)n3nc(C4=CCOCC4)nc3n21 [Example 23A, (R)-2-(3,6-dihydro-2H-pyran-4-yl)-6-(4-(3-hydroxypicolinoyl)piperazin-1-yl)-5-oxo-N-(4-(trifluoromethyl)phenyl)-5,7,8,9-tetrahydropyrrolo[1,2-c][1,2,4]triazolo[1,5-a]pyrimidine-9-carboxamide] |
| 1 µM | > 10 µM | 0.1 µM | Cc1ncnc(C(=O)N2CCN(c3c4n(c5nc(N6CCOCC6)nn5c3=O)[C@@H](C(=O)Nc3ccc(C(F)(F)F)cc3Cl)C[C@@H]4C)CC2)c1O [Example 2C, (7S,9R)—N-(2-chloro-4-(trifluoromethyl)phenyl)-6-(4-(5-hydroxy-6-methylpyrimidine-4-carbonyl)piperazin-1-yl)-7-methyl-2-morpholino-5-oxo-5,7,8,9-tetrahydropyrrolo[1,2-c][1,2,4]triazolo[1,5-a]pyrimidine-9-carboxamide] |
| > 10 µM | > 10 µM | 26 µM | Cc1ncnc(C(=O)N2CCN(c3c4n(c5nc(N6CCOCC6)nn5c3=O)[C@H](C(=O)Nc3ccc(C(F)(F)F)cc3Cl)C[C@@H]4C)CC2)c1O [Example 2B, (7S,9S)—N-(2-chloro-4-(trifluoromethyl)phenyl)-6-(4-(5-hydroxy-6-methylpyrimidine-4-carbonyl)piperazin-1-yl)-7-methyl-2-morpholino-5-oxo-5,7,8,9-tetrahydropyrrolo[1,2-c][1,2,4]triazolo[1,5-a]pyrimidine-9-carboxamide] |
| – | – | > 100 µM | CC(=O)N1CCN(c2c3n(c4nc(-c5ccccc5)nn4c2=O)[C@H](C(=O)Nc2ccc(C(F)(F)F)cc2)CC3)CC1 [Example 22B, (S)-6-(4-acetylpiperazin-1-yl)-5-oxo-2-phenyl-N-(4-(trifluoromethyl)phenyl)-5,7,8,9-tetrahydropyrrolo[1,2-c][1,2,4]triazolo[1,5-a]pyrimidine-9-carboxamide] |
| 0.01 µM | > 10 µM | – | Cc1ncnc(C(=O)N2CCN(c3c4n(c5nc(C6=CC(=O)OCC6)nn5c3=O)[C@@H](C(=O)Nc3ccc(C(F)(F)F)cc3Cl)C[C@H]4C)[C@H]3CC[C@@H]32)c1O [Example 25, (7R,9R)—N-(2-chloro-4-(trifluoromethyl)phenyl)-6-((1S,6S)-5-(5-hydroxy-6-methylpyrimidine-4-carbonyl)-2,5-diazabicyclo[4.2.0]octan-2-yl)-7-methyl-5-oxo-2-(6-oxo-3,6-dihydro-2H-pyran-4-yl)-5,7,8,9-tetrahydropyrrolo[1,2-c][1,2,4]triazolo[1,5-a]pyrimidine-9-carboxamide] |
| – | – | 44 µM | Cc1cc(C(F)(F)F)ccc1NC(=O)[C@@H]1CCc2c(N3CCN(C(=O)c4nccc(Cl)c4O)CC3)c(=O)n3nc(C4=CCOCC4)nc3n21 [Example 19B, (S)-6-(4-(4-chloro-3-hydroxypicolinoyl)piperazin-1-yl)-2-(3,6-dihydro-2H-pyran-4-yl)-N-(2-methyl-4-(trifluoromethyl)phenyl)-5-oxo-5,7,8,9-tetrahydropyrrolo[1,2-c][1,2,4]triazolo[1,5-a]pyrimidine-9-carboxamide] |
